Assay results from PMC9372051, “Biological evaluation, molecular modeling and dynamics simulation of phenanthrenes isolated from Bletilla striata as butyrylcholinesterase inhibitors” (Scientific Reports, 2022).
Like-named read-outs stand apart in the source and are kept apart here.

Key:
AChE from electric eel = AChE from electric eel (Electrophorus electricus, UniProt O42275); assay: biochemical; details: read-out: % of inhibition at 25 μg/mL AChE
BChE from equine serum = BChE from equine serum (Equus caballus, UniProt P81908); assay: biochemical; type: biochemical; details: for inhibition at 25 µg/mL: read-out: % of inhibition at 25 μg/mL BChE; for BChE inhibition described in words: structure-activity discussion
BChE from equine serum, sequence (P81908 whole entry): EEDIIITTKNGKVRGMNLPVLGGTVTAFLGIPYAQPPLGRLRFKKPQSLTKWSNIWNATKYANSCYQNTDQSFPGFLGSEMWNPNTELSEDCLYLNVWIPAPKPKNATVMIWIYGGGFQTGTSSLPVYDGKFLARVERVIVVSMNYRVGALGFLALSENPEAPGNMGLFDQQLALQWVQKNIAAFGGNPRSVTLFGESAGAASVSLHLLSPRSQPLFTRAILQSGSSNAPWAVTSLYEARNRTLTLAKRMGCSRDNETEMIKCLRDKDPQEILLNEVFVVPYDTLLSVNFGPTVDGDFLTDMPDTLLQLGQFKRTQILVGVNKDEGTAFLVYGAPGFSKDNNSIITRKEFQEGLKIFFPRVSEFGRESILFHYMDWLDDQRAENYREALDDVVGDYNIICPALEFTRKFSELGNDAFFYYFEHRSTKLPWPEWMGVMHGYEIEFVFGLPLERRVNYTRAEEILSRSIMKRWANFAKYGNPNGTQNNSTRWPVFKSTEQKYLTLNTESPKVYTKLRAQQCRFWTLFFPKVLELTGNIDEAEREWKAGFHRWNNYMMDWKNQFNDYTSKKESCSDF

BChE = BChE (Equus caballus, UniProt P81908); assay: Kinetic characterization of BChE inhibition (Lineweaver–Burk plots, secondary plots); type: biochemical, equine; details: for Mode of BChE inhibition: Lineweaver–Burk plots; for Ki: estimated by secondary plots of Lineweaver–Burk plots, substrate BTCI
BChE, sequence (P81908 whole entry): as above
Procedure: […]. Five increasing concentrations of BTCI as a substrate in the presence of three different concentrations of compound were used in the kinetic measurement. The concentrations of the enzyme and DNTB used in the determination are 0.226 U/mL and 3 mM respectively. The inhibition constants (Ki) of the inhibitors were determined by the secondary plots which constructed using the slopes of the Lineweaver–Burk plots.

AChE from electric eel, sequence (O42275 24-633): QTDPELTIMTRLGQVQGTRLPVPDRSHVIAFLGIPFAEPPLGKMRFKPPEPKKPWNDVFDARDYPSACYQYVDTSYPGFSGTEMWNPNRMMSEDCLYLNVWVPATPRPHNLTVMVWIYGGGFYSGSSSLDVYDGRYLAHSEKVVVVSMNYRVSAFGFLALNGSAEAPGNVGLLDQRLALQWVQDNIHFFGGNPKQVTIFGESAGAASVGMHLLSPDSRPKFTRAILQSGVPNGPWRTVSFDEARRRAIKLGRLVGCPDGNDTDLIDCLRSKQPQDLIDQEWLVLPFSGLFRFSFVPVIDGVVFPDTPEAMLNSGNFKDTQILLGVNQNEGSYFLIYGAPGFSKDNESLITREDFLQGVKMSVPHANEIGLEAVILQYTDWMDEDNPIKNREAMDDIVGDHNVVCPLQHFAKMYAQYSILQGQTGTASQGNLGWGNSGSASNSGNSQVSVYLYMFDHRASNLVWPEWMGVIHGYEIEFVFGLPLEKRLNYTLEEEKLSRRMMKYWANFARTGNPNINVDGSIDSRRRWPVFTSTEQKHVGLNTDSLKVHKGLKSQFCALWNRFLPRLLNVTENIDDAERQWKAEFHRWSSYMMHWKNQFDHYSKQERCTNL

Structure (SMILES)	inhibition at 25 µg/mL (AChE from electric eel) [%]	Selectivity ratio (BChE from equine serum)	IC50 (BChE from equine serum; mean ± SD of three experiments) [µM]	inhibition at 25 µg/mL (BChE from equine serum) [%]	Mode of BChE inhibition (BChE)	Ki (BChE) [µM]	inhibition at 25 µg/mL (BChE from equine serum; 25 μg/mL final concentration, mean ± SD of three experiments) [%]	BChE inhibition described in words (BChE from equine serum)
COc1cc(Oc2c(O)cc(OC)c3c2ccc2cc(O)ccc23)cc2c1-c1ccc(O)cc1CC2 [Compound 16, blestrin C]	4.9 ± 3.2	> 4.3	12.1 ± 3.4	64.3 ± 2.4	–	–	–	–
COc1c(Cc2ccc(O)cc2)c(O)cc2c1-c1ccc(O)cc1CC2 [Compound 7, 3-(4-hydroxybenzyl)-4-methoxy-9,10-dihydrophenanthrene-2,7-diol]	9.6 ± 2.6	> 2.1	34 ± 1.4	65.7 ± 0.7	–	–	–	–
COc1cc(O)cc(CCc2cccc(O)c2)c1Cc1ccc(O)cc1 [Compound 3, 3′,5-dihydroxy-2-(4-hydroxybenzyl)-3-methoxybibenzyl]	5 ± 1.5	–	80.3 ± 5.2	51.3 ± 2	–	–	–	–
COc1c(O)cc2ccc3c(Cc4ccc(O)cc4)c(O)ccc3c2c1OC [Compound 8, bleformin A]	18.5 ± 1.7	> 13.1	5.2 ± 0.4	70 ± 1	mixed-type	4.7	–	–
COc1cc(C2Oc3cc4c(c(OC)c3C2CO)-c2ccc(O)cc2CC4)ccc1O (stereo not shown) [Compound 19, 9-(4′-hydroxy-3′-methoxyphenyl)-10-(hydroxymethyl)-11-methoxy-5,6,9, 10-tetrahydrophenanthro[2,3-b] furan-3-ol]	3.3 ± 1.8	> 1.7	35.8 ± 9.2	61.2 ± 1.3	–	–	–	–
COc1cc(C2COc3cc(OC)c4c(c3C2O)CCc2cc(O)ccc2-4)ccc1O (stereo not shown) [Compound 17, shanciol F]	5.5 ± 1.8	–	–	21.8 ± 3.1	–	–	–	–
COc1cc(Oc2c(O)cc(OC)c3c2CCc2cc(O)ccc2-3)cc2c1-c1ccc(O)cc1CC2 [Compound 15, blestrin A]	8.4 ± 3.1	> 2.9	17.9 ± 4.7	64 ± 2.6	–	–	–	–
COc1cc(O)c2c(c1Cc1ccc(O)cc1)CCc1cc(O)ccc1-2 [Compound 9, shancidin]	15.2 ± 3.6	> 4.3	16.7 ± 2	72.8 ± 3.4	–	–	–	–
COc1cc(O)cc2c1-c1ccc(Oc3c(O)cc(OC)c4c3ccc3cc(O)ccc34)cc1CC2 [Compound 14, blestrin D]	6.8 ± 1.6	> 6.8	8.1 ± 0.5	–	mixed-type	10.9	69 ± 2.5	–
COc1ccc2c3c1O[C@H]1C[C@@H](O)C=C[C@@]31CCN(C)C2 [Galantamine, reference compound]	–	–	–	64.2 ± 0.6	–	–	–	–
COc1cc(O)c(-c2c(O)cc(OC)c3c2CCc2cc(O)ccc2-3)c2c1-c1ccc(O)cc1CC2 [Compound 22, flavanthrin]	13.3 ± 2.9	> 1.2	42.2 ± 5.1	56.7 ± 2	–	–	–	moderate efficacy
COc1cc([C@@H]2Oc3cc4c(cc3[C@H]2CO)-c2c(cc(O)cc2OC)CC4)ccc1O [Compound 18, bletilol D]	5.7 ± 2.8	–	–	31.6 ± 2.8	–	–	–	–
COc1cccc(CCc2cc(OC)cc(O)c2Cc2ccc(O)cc2)c1 [Compound 1, gymconopin D]	48.1 ± 6.3	> 1.7	40.5 ± 5.6	66.2 ± 3.4	–	–	–	–
COc1cc(O)c(Cc2ccc(O)cc2)c2ccc3c(Cc4ccc(O)cc4)c(O)ccc3c12 [Compound 12, 1,8-bis(4-hydroxybenzyl)-4-methoxyphenanthrene-2,7-diol]	16.1 ± 5	> 23.1	2.3 ± 0.4	95.4 ± 0.3	non-competitive	6.6	–	–
COc1c(O)c(Cc2ccc(O)cc2)c2ccc3cc(O)ccc3c2c1OC [Compound 13, bleformin B]	9.9 ± 4.7	> 4.0	16.7 ± 2.4	75.7 ± 1.1	–	–	–	–
COc1ccc2c(ccc3c(Cc4ccc(O)cc4)c(O)cc(OC)c32)c1O [Compound 6, 1-(p-hydroxybenzyl)-4,7-dimethoxyphenanthrene-2,8-diol]	20.4 ± 4.5	> 9.5	6.4 ± 0.2	85.2 ± 2.9	mixed-type	14	–	–
COc1cc([C@@H]2Oc3cc(OC)c4c(c3[C@H]2Cc2c(O)cc(OC)c3c2CCc2cc(O)ccc2-3)CCc2cc(O)ccc2-4)ccc1O [Compound 20, Bletilol E]	5.1 ± 4	–	–	8 ± 2.4	–	–	–	weak inhibition potency
COc1cc(CCc2cccc(O)c2)cc(O)c1Cc1ccc(O)cc1 [Compound 5, 3,3′-dihydroxy-4-(4-hydroxybenzyl)-5-methoxybibenzyl]	2.6 ± 2.8	–	–	22.6 ± 2.1	–	–	–	–
COc1cccc(CCc2cc(O)cc(OC)c2Cc2ccc(O)cc2)c1 [Compound 2, bulbocol]	16.3 ± 3.8	> 2.1	33.5 ± 3.7	67.7 ± 0.3	–	–	–	–
COc1c(Cc2ccc(O)cc2)c(O)c(Cc2ccc(O)cc2)c2c1-c1ccc(O)cc1CC2 [Compound 11, 2,7-dihydroxy-1,3-bi(p-hydroxybenzyl)-4-methoxy-9,10-dihydrophenanthrene]	20.1 ± 3.5	> 1.2	44.6 ± 4.1	53.1 ± 1.2	–	–	–	–
COc1cc(O)c(Cc2ccc(O)cc2)c2ccc3cc(O)ccc3c12 [Compound 10, 1-[(4-hydroxyphenyl)methyl]-4-methoxy-2,7-phenanthrenediol]	19.1 ± 3.8	> 34.7	2.1 ± 0.3	96.6 ± 1.2	non-competitive	5.4	–	–
COc1cc(O)cc(/C=C\c2cccc(O)c2)c1 [Compound 21, pholidotol D]	5.2 ± 3.2	–	–	29.1 ± 1.3	–	–	–	–
COc1cc(O)c(Cc2ccc(O)cc2)c(CCc2cccc(O)c2)c1 [Compound 4, isoarundinin II]	0.9 ± 0.8	–	–	39.3 ± 2.3	–	–	–	–
